Assay results published in ChEMBL document CHEMBL1201862, “PubChem BioAssay data set” (2004).
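Grown in 96-well plates, cells were treated for 48 hours with each compound at five concentrations. Insufficient inhibition: endpoint recorded as highest concentration tested. GI50 = concentration required for 50% inhibition of growth.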 Activity calls are given as the source filed them. No stated cut-off is given here; in the data, active = GI50 up to about 1.1 µM and inactive = higher.

Tests used:
Experiment in all cases: inhibition of tumour cell growth, NCI panel, 48 h
[1] = system: 786-0
[2] = system: A498
[3] = system: A549
[4] = system: ACHN
[5] = system: BT-549
[6] = system: CAKI-1
[7] = system: CCRF-CEM
[8] = system: COLO 205
[9] = system: DU-145
[10] = system: EKVX
[11] = system: HCC 2998
[12] = system: HCT-116
[13] = system: HCT-15
[14] = system: HL-60
[15] = system: HOP-62
[16] = system: HOP-92
[17] = system: HT-29
[18] = system: Hs-578T
[19] = system: IGROV-1
[20] = system: K562
[21] = system: KM12
[22] = system: LOX IMVI
[23] = system: M14
[24] = system: MCF7
[25] = system: MDA-MB-231
[26] = system: MDA-MB-435
[27] = system: MDA-N
[28] = system: MOLT-4
[29] = system: Malme-3M
[30] = system: NCI-H226
[31] = system: NCI-H23
[32] = system: NCI-H460
[33] = system: NCI-H522
[34] = system: NCI/ADR-RES
[35] = system: OVCAR-3
[36] = system: OVCAR-4
[37] = system: OVCAR-5
[38] = system: OVCAR-8
[39] = system: PC-3
[40] = system: RPMI-8226
[41] = system: RXF 393
[42] = system: SF-268
[43] = system: SF-295
[44] = system: SF-539
[45] = system: SK-MEL-28
[46] = system: SK-MEL-2
[47] = system: SK-MEL-5
[48] = system: SK-OV-3
[49] = system: SN12C
[50] = system: SNB-19
[51] = system: SNB-75
[52] = system: SR
[53] = system: SW-620
[54] = system: T47D
[55] = system: TK-10
[56] = system: U-251
[57] = system: UACC-257
[58] = system: UACC-62
[59] = system: UO-31

Measured: GI50

O=c1[nH]c2cc(C(F)(F)F)ccc2nc1CBr
inactive: [1] 6.62 µM | [2] 18.4 µM | [3] 11 µM | [4] 7.19 µM | [5] 13.1 µM | [6] 6.25 µM | [8] 8.02 µM | [9] 14.3 µM | [10] 15.8 µM | [11] 17.8 µM | [12] 13.5 µM | [14] 2.69 µM | [15] 8.05 µM | [16] 2.79 µM | [17] 11.4 µM | [18] 22 µM | [19] 10.6 µM | [20] 5.73 µM | [21] 14.9 µM | [22] 1.82 µM | [23] 8.3 µM | [24] 4.97 µM | [25] 13.5 µM | [26] 11.4 µM | [27] 12 µM | [28] 1.56 µM | [29] 14 µM | [30] 7.87 µM | [31] 15.4 µM | [32] 13.9 µM | [34] 17.4 µM | [35] 9.77 µM | [36] 15.7 µM | [37] 14.1 µM | [38] 10.4 µM | [39] 13.1 µM | [40] 5.97 µM | [41] 12.4 µM | [42] 21.3 µM | [43] 14.9 µM | [44] 8.41 µM | [45] 15.1 µM | [46] 12.2 µM | [47] 9.59 µM | [48] 18.5 µM | [49] 9.31 µM | [50] 15.5 µM | [51] 16.6 µM | [52] 4.85 µM | [53] 9.59 µM | [54] 16 µM | [55] 13.9 µM | [56] 9.48 µM | [57] 14.7 µM | [58] 9.51 µM | [59] 3.4 µM
active: [7] 1.04 µM | [33] 0.36 µM
11.4 µM: [13]

O=C(c1c(F)c(F)c(F)c(F)c1F)c1c(F)c(F)c(F)c(F)c1F
inactive: [2] 3.06 µM | [3] 3.53 µM | [4] 1.7 µM | [5] 2.46 µM | [8] 1.45 µM | [9] 1.96 µM | [10] 1.96 µM | [11] 1.67 µM | [12] 1.51 µM | [15] 1.81 µM | [16] 1.83 µM | [17] 1.32 µM | [18] 2.69 µM | [19] 1.3 µM | [23] 2.1 µM | [25] 1.85 µM | [26] 1.56 µM | [27] 1.43 µM | [29] 1.52 µM | [30] 3.51 µM | [31] 2.48 µM | [32] 2.25 µM | [34] 3.13 µM | [36] 1.75 µM | [37] 1.9 µM | [38] 1.5 µM | [39] 1.62 µM | [41] 1.55 µM | [42] 2.55 µM | [43] 2.55 µM | [45] 2.88 µM | [46] 2.24 µM | [47] 2.82 µM | [48] 2.39 µM | [49] 1.87 µM | [50] 4.06 µM | [51] 1.98 µM | [54] 1.69 µM | [55] 1.19 µM | [57] 1.84 µM | [58] 1.92 µM | [59] 1.23 µM
1.55 µM: [13]
active: [1] 0.476 µM | [6] 0.914 µM | [7] 0.0553 µM | [14] 0.48 µM | [20] 0.316 µM | [21] 0.535 µM | [22] 0.71 µM | [24] 0.299 µM | [28] 0.171 µM | [33] 0.182 µM | [35] 0.979 µM | [40] 0.0528 µM | [44] 1.09 µM | [52] 0.174 µM | [53] 1.06 µM | [56] 0.951 µM

CC(C)(C)c1cc(OCc2nnc3sc(Cc4ccccc4)nn23)c(Cl)cc1OCc1nnc2sc(Cc3ccccc3)nn12
33.4 µM: [13]
inactive: [1] 17.3 µM | [2] 30.5 µM | [3] 28.8 µM | [4] 24.9 µM | [5] 21.5 µM | [6] 34.3 µM | [7] 3.27 µM | [8] 21.6 µM | [9] 33 µM | [10] 27.3 µM | [11] 4.4 µM | [12] 24.3 µM | [14] 23.8 µM | [15] 46.6 µM | [16] 15.8 µM | [17] 22.1 µM | [18] > 100 µM | [19] 22 µM | [20] 14.5 µM | [21] 18.8 µM | [22] 29.1 µM | [23] 29 µM | [24] 17.7 µM | [25] 19.3 µM | [26] 24.1 µM | [27] 24.5 µM | [28] 17.3 µM | [29] 19.5 µM | [30] > 100 µM | [31] 31.9 µM | [32] 17.7 µM | [33] 37.2 µM | [34] 76 µM | [35] 30.7 µM | [36] 24.8 µM | [37] 29 µM | [38] 17.1 µM | [39] 30.1 µM | [40] 20.7 µM | [41] 18.1 µM | [42] 44.2 µM | [43] 23.3 µM | [44] 30.8 µM | [45] 24.2 µM | [46] 37.8 µM | [47] 15.3 µM | [48] 34 µM | [49] 44.6 µM | [50] 33.5 µM | [51] 15.3 µM | [52] 3.52 µM | [53] 26.7 µM | [54] 9.59 µM | [55] 30.1 µM | [56] 13.9 µM | [57] 21.3 µM | [58] 19.5 µM | [59] 47.5 µM

COc1ccc(-c2oc3c(OC)c(OC)c(OC)c(O)c3c(=O)c2OC)cc1OC
active: [16] 0.243 µM
inactive: [1] 25.4 µM | [2] 19.9 µM | [3] 27.5 µM | [4] 25 µM | [5] 34.4 µM | [6] 40.4 µM | [7] 16.9 µM | [8] 25.8 µM | [9] 36.2 µM | [10] 37.6 µM | [11] 19.3 µM | [12] 24.9 µM | [14] 6.81 µM | [15] 19.5 µM | [17] 23.6 µM | [18] 3.01 µM | [19] 3.15 µM | [20] 10.6 µM | [21] 24.4 µM | [22] 11 µM | [23] 26.4 µM | [24] 3.97 µM | [25] 22.2 µM | [26] 4.69 µM | [27] 10.3 µM | [28] 15.5 µM | [29] 46.8 µM | [30] 20.7 µM | [31] 31.1 µM | [32] 17.8 µM | [33] 14.3 µM | [34] 13.3 µM | [35] 22.7 µM | [36] 26.5 µM | [37] 35.6 µM | [38] 25.4 µM | [39] 18 µM | [40] 16.7 µM | [41] 17.4 µM | [42] 9.33 µM | [43] 22 µM | [44] 19.4 µM | [45] 32.2 µM | [46] 15.1 µM | [47] 9.71 µM | [48] 8.2 µM | [49] 26.2 µM | [50] 63.4 µM | [51] 1.66 µM | [52] 7.87 µM | [53] 20.8 µM | [54] 2.86 µM | [55] 36.2 µM | [56] 27.7 µM | [57] 32.1 µM | [58] 21.8 µM | [59] 9.06 µM
14 µM: [13]
